Reference: patent US9914732B2, “Diazabicyclo[4.3.1]decane derivatives for treatment of psychiatric disorders” (Max-Planck-Gesellschaft zur Forderung der Wissenschaften …, priority 2014, dated 2018)

Legend:
N2a cells = assay: N2a cellular assay (neurite outgrowth); format: cell-based; settings: N2a neuroblastoma cells, FIG. 1
Method: FK506 analogs have repeatedly been described as neuroprotective and […] agents in the prior arts.
Example 12: N2a Cellular Assay
At day one N2a cells were plated into 24-well plates with cover slips (pretreated with polylysine) at a density of 35,000 cells/well and cultured with DMEM (incl. FCS 10% and Pen/Strep 1%) for 24 h. Next, cells were transfected with 80 ng expression plasmids encoding Venus as well as 720 ng pRK5 (mock transfection) in a total volume of 500 μl starvation media containing different concentrations of compounds or DMSO for 36 h (media without FCS; induction of neurite outgrowth). Therefore media was removed and replaced by 400 μl DMEM (empty). Next an equivalent volume of plasmids were given to 50 μl OPTIMEM and incubated for 5 min at RT. Additionally 1.5 μl Lipofectamine 2000 was separately dissolved in 50 μl OPTIMEM. After 5 min both solutions (plasmids and Lipofectamine 2000 containing media) were combined and incubated again for another 20 min. After that 100 μl of this mixture was given to 400 μl media per well. (See also protocol of the provider—Life Technologies).
On the next day cells were washed with PBS and incubated for 30 min with 300 μl PFA (4%) and sucrose (5%) to fix cells. After fixation cells were washed three times, mounted onto microscope slides using 4 μl Vectashield (mounting media) and analyzed by fluorescence microscopy. […]

FKBP52 = target: T1, FKBP52 (Homo sapiens, UniProt Q02790); assay: Fluorescence polarization (FP) assay, binding to the FK506-binding domain of FKBP52; settings: FK506-binding domain of FKBP52 (FKBP52FK1), competition with fluorescent ligand 2b
T1 sequence (Q02790 50-138 limits assumed): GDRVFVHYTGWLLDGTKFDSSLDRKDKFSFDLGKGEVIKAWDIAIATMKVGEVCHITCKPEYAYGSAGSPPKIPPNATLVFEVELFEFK
Procedure, shortened: (§1)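 Competitive FP with fluorescent ligand 2b at 20 nM (2× concentration) and FK1 domain at 280 nM (FKBP51) or 400 nM (FKBP52) in 20 mM HEPES pH 8, 0.01% Triton-X100. Anisotropy read after 30 min at room temperature (ex 485, em 535 nm), in duplicate; IC50 by four-parameter fit, Ki via Wang competitive equation.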

FKBP51 = target: T2, FKBP51 (Homo sapiens, UniProt Q13451); assay: Fluorescence polarization (FP) assay, binding to the FK506-binding domain of FKBP51; settings: FK506-binding domain of FKBP51 (FKBP51FK1), competition with fluorescent ligand 2b
T2 sequence (Q13451 42-130 limits assumed): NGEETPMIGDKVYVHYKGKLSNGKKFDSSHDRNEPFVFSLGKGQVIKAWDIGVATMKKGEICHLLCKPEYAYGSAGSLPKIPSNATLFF
Procedure, shortened: as §1

Compound | neurite outgrowth (N2a cells) | Ki (FKBP52) [µM] | Ki (FKBP51) [µM]
COc1ccc(OCCN2C[C@H]([C@H](O)CO)C3CCCC(C2=O)N3S(=O)(=O)c2cc(Cl)cc(Cl)c2)cc1OC (stereo partly drawn) [Compound C2a, (1S,5S,6R)-10-((3,5-dichlorophenyl)sulfonyl)-5-(1,2-dihydroxyethyl)-3-(2-(3,4-dimethoxyphenoxy)ethyl)-3, 10-diazabicyclo[4.3.1]decan-2-one] | potently enhanced neurite outgrowth | – | –
COC[C@H]1CN(Cc2cnn[nH]2)C(=O)[C@@H]2CCC[C@H]1N2S(=O)(=O)c1cccnc1 [Compound N25, (1S,5S,6R)-3-((1H-1,2,3-triazol-5-yl)methyl)-5-(methoxymethyl)-10-(pyridin-3-ylsulfonyl)-3,10-diazabicyclo[4.3.1]decan-2-one] | – | ≤ 0.1 | ≤ 0.1
COC[C@H]1CN(Cc2cnn[nH]2)C(=O)[C@@H]2CCC[C@H]1N2S(=O)(=O)c1ccc(-c2ccccc2)nc1 [Compound N26, (1S,5S,6R)-3-((1H-1,2,3-triazol-5-yl)methyl)-5-(methoxymethyl)-10-((6-phenylpyridin-3-yl)sulfonyl)-3,10-diazabicyclo[4.3.1]decan-2-one] | – | ≤ 0.1 | ≤ 0.1
COC[C@H]1CN(Cc2cnn[nH]2)C(=O)[C@@H]2CCC[C@H]1N2S(=O)(=O)c1ccc(-c2ncccn2)cc1 [Compound N27, (1S,5S,6R)-3-((1H-1,2,3-triazol-5-yl)methyl)-5-(methoxymethyl)-10-((4-(pyrimidin-2-yl)phenyl)sulfonyl)-3,10-diazabicyclo[4.3.1]decan-2-one] | – | ≤ 0.1 | ≤ 0.1
COC[C@H]1CN(Cc2cnn[nH]2)C(=O)[C@@H]2CCC[C@H]1N2S(=O)(=O)c1nc2ccccc2[nH]1 [Compound N28, (1S,5S,6R)-3-((1H-1,2,3-triazol-5-yl)methyl)-10-((1H-benzo[d]imidazol-2-yl)sulfonyl)-5-(methoxymethyl)-3,10-diazabicyclo[4.3.1]decan-2-one] | – | ≤ 0.1 | ≤ 0.1
COC[C@H]1CN(Cc2cnnn2Cc2ccccc2)C(=O)[C@@H]2CCC[C@H]1N2S(=O)(=O)c1cccc(F)c1 [Compound N30, (1S,5S,6R)-3-((1-benzyl-1H-1,2,3-triazol-5-yl)methyl)-10-((3-fluorophenyl)sulfonyl)-5-(methoxymethyl)-3,10-diazabicyclo[4.3.1]decan-2-one] | – | 0.1 to 0.5 | 0.1 to 0.5
COC[C@H]1CN(Cc2cnnn2C(=O)c2ccccc2)C(=O)[C@@H]2CCC[C@H]1N2S(=O)(=O)c1cccc(F)c1 [Compound N31, (1S,5S,6R)-3-((1-benzoyl-1H-1,2,3-triazol-5-yl)methyl)-10-((3-fluorophenyl)sulfonyl)-5-(methoxymethyl)-3,10-diazabicyclo[4.3.1]decan-2-one] | – | 0.1 to 0.5 | 0.1 to 0.5
COC[C@H]1CN(Cc2cnnn2S(=O)(=O)c2ccccc2)C(=O)[C@@H]2CCC[C@H]1N2S(=O)(=O)c1cccc(F)c1 [Compound N32, (1S,5S,6R)-10-((3-fluorophenyl)sulfonyl)-5-(methoxymethyl)-3-((1-(phenylsulfonyl)-1H-1,2,3-triazol-5-yl)methyl)-3,10-diazabicyclo[4.3.1]decan-2-one] | – | 0.1 to 0.5 | 0.1 to 0.5
COc1ccc(OCCN2CCC3CCCC(C2=O)N3S(=O)(=O)c2cc(Cl)cc(Cl)c2)cc1OC (centres unmarked) [Ref. 1, reference compound] | – | 1 to 5 | 1 to 5
COc1ccc(OCCN2CCC3CCCC(C2=O)N3S(=O)(=O)c2ccc3ncsc3c2)cc1OC (centres unmarked) [Ref. 2, reference compound] | – | 1 to 5 | 1 to 5
COc1ccc(OCCN2CCC3CCCC(C2=O)N3S(=O)(=O)c2cc(Cl)c(O)c(Cl)c2)cc1OC (centres unmarked) [Ref. 3, reference compound] | – | 1 to 5 | 1 to 5
O=C1NCCC2CCCC1N2S(=O)(=O)c1ccc2sc(=O)[nH]c2c1 (centres unmarked) [Ref. 4, reference compound] | – | > 5 | > 5
